Patent US11103454B2, “Wax foamable vehicle and pharmaceutical compositions thereof” (VYNE THERAPEUTICS INC., priority 2007, dated 2021)

From the text: In one or more embodiments, the foamable composition includes a potent solvent, in addition to or in place of one of the hydrophobic solvents, polar solvents or emollients of the composition. A potent solvent is a solvent other than mineral oil that solubilizes a specific active agent substantially better than a hydrocarbon solvent such as mineral oil or petrolatum.

## C/C(=C\C(=O)OCCCCCCCCC(=O)O)C[C@@H]1OC[C@H](C[C@@H]2O[C@H]2[C@@H](C)[C@H](C)O)[C@@H](O)[C@H]1O [Mupirocin]
  Solubility in dimethyl isosorbide: more than 1%
  Solubility in glycofurol: more than 1%
  Solubility in mineral oil: < 0.01%
  Solubility in polyethylene glycol 400 (PEG 400): more than 1%
  Solubility in propylene glycol: more than 1%

## CCCCC(=O)O[C@]1(C(=O)CO)[C@@H](C)C[C@H]2[C@@H]3CCC4=CC(=O)C=C[C@]4(C)[C@@]3(F)[C@@H](O)C[C@@]21C [Betamethasone valerate]
  Solubility in glycofurol: more than 1%
  Solubility in mineral oil: < 0.01%

## CC(=O)N1CCN(c2ccc(OCC3COC(Cn4ccnc4)(c4ccc(Cl)cc4Cl)O3)cc2)CC1 (stereo not drawn) [Ketoconazole]
  Solubility in dimethyl isosorbide: more than 1%
  Solubility in glycofurol: more than 1%
  Solubility in mineral oil: < 0.01%
  Solubility in propylene glycol: more than 1%

## CC(C)Cn1cnc2c(N)nc3ccccc3c21 [imiquimod, 4-Amino-1-isobutyl-1H-imidazo[4,5-c] quinoline]
  Solubility in isostearic acid: soluble

## Cc1ncc([N+](=O)[O-])n1CCO [Metronidazole]
  Solubility in dimethyl isosorbide: more than 1%
  Solubility in mineral oil: < 0.01%

## CC(=O)[C@H]1CC[C@H]2[C@@H]3CCC4=CC(=O)CC[C@]4(C)[C@H]3CC[C@]12C [Progesterone]
  Solubility in mineral oil: < 0.001%

## CCCC(=O)O[C@]1(C(=O)CO)CC[C@H]2[C@@H]3CCC4=CC(=O)CC[C@]4(C)[C@H]3[C@@H](O)C[C@@]21C [Hydrocortisone butyrate]
  Solubility in glycofurol: more than 1%
  Solubility in mineral oil: < 0.01%

## Cc1cnc(NC(=O)C2=C(O)c3ccccc3S(=O)(=O)N2C)s1 [Meloxicam]
  Solubility in mineral oil: < 0.001%
